Assay results: US20140017701A1, “CHIMERIC PDK1 KINASES” (priority 2011, published 2014)

Legend:
PDK1 = assay: Protein kinase activity assay, PDK1; format: biochemical, human; conditions: for Effect on PDK1 activity: PDK1 wt / PDK1 50-359; for Activity (%) PDK1: Table I a, percentage of catalytic activity compared to DMSO, T308tide substrate, 50 μM stated for PS171
Experimental: For the expression and purification of protein kinases fused to GST, pEBG-2T derived plasmids were transfected into 8×14.5 cm dishes containing HEK293 cells using the PEI method ([…] and […]/14.5 cm dish). The cells were lysed after 48 h in a buffer containing 50 mM Tris-HCl pH 7.5, 1 mM EGTA, 1 mM EDTA, 1% (w/v) Triton X-100, 1 mM sodium orthovanadate, […], 5 mM sodium pyrophosphate, 0.27 M sucrose, 0.1% β-mercaptoethanol, and 1 tablet of protease inhibitor cocktail per 50 ml of buffer. Lysates were frozen in liquid nitrogen and kept at −80° C. until required. Purification involved incubation of the cleared lysate with glutathione sepharose, followed by 2 washes with 0.5 M NaCl in lysis buffer, 8 washes with a buffer containing 50 mM Tris-HCl, 0.1 mM EGTA and 0.1% β-mercaptoethanol (buffer A), and a last wash with buffer A supplemented with 0.26 M sucrose. Elution was performed with this last buffer containing 20 mM glutathione and the GST-fusion protein was cleared from resin by filtration through a “SigmaPrep” spin column (Sigma). GST-fusion proteins were aliquoted, snap frozen in liquid nitrogen and kept at −80° C. until use. Purity at this stage was above 85% as estimated by SDS-PAGE and staining with Coomassie Brilliant Blue R250. PRK2 was expressed from pEBG-2T-PRK2 (Balendran, A. et al. J Biol Chem 275, 20806-13. (2000)), SGK1 from pEBG-2T-SGK1-ΔN[Ser422Asp], PKBα from pEBG-2T-PKBα[Ser473Asp] (Biondi et al., D. R. Embo J 20, 4380-90. (2001)), PKCl from pEBG-2T-PKCl and PKCζ from pEBG-2T-PKCζ. PDK1 and S6K1 were expressed in Sf9 insect cells using a baculovirus expression system from pFastBac-PDK1 and pFastBac-56K1-T2[Thr412Glu].
(§1) The protein kinase activity assays were performed essentially as previously described (Engel, M. et al. Embo J 25, 5469-80 (2006)). The assays were done in a 96-well format and 4 μl aliquots spotted on P81 phospho-cellulose papers (Whatman) using epMotion 5070 (Eppendorf), washed in 0.01% phosphoric acid, dried, and then exposed and analyzed using PhosphoImager technology (FLA-9000 Starion, Fujifilm). Atypical PKC (aPKC) activity assays were performed in a total volume of 20 μl containing 50 mM Tris-HCl pH 7.5, 0.05 mg/ml BSA, 0.1% (v/v) 2-mercaptoethanol, 10 mM MgCl2, 100 μM [γ^32P]ATP (5-50 cpm/pmol), 0.003% Brij, 30-50 ng of aPKC, and MBP (10 μM) or PSRtide (100 μM) as the substrate. After 15 min pre-incubation, the kinase reaction was started by addition of 6 μl of an ATP-Mg mix. When required, lipid activator (LA) phosphatidylserine (100 ng) or PKC lipid activator mix (1×) was included in the pre-incubation. Low basal activity and consistent activation of 1-592 PKCζ and 498 PKCζ by LA was obtained when the pre-incubation time was started by addition of the whole mix on the enzyme.
The substrates were T308tide (200 μM) for PDK1, Kemptide (100 μM) for PKA, and Crosstide (100 μM) for SGK, PKB, S6K, and PRK2. The activity assays for PKCα, β, θ, and δ were performed in the presence of PKC lipid activator mix (1×) using 3 μM of histone H1 as substrate.
The activity assays were performed in duplicates or triplicates (in the case of the temperature stability assay) with less than 10% difference between the duplicate pairs. The activity assays shown were repeated at least twice with similar results. Moreover, most of the assays shown were repeated multiple times with enzymes from independent purifications with similar results. Representative experiments are shown. […]

[1] = tested on: PKCζ-dependent NFκB activation in U937 cells; assay: PKCζ-dependent NFκB signaling in U937 cells (luciferase reporter, TNFα stimulation); format: cell-based; conditions: 3 h pre-incubation, TNFα 50 ng/ml 90 min, read-out: IC50, inhibition of PKCζ-dependent NFκB activation
Experimental: In U937 lymphoma cells, tumor necrosis factor alpha (TNFα) dependent activation of NFκB is dependent on PKCζ activity (Folgueira, L. et al. J Virol 70, 223-31 (1996); Muller, G. et al. Embo J 14, 1961-9 (1995)). U937cells were transiently transfected with a plasmid encoding for luciferase under the control of NFκB response elements (pGL4.32 [luc2P/NF-κB-RE/Hygro], Promega). After serum starvation overnight, the cells were incubated in 96-well plates with the compounds or DMSO (0.25%) for 3 h and stimulated with TNFα (50 ng/ml, PeproTech) for 90 min. Bright-Glo Luciferase Assay reagent (Promega) was added and the luciferase activity measured using the multilabel reader station EnVision (Perkin Elmer).
U937 lymphoma cells were transiently transfected with a plasmid coding for luciferase under the control of the NFκB promoter. Upon stimulation of the cells with TNFα, an increase in luciferase activity is detected. In U937 cells, the NFκB signaling pathway is dependent on PKCζ activity (Muller, G. et al. Embo J 14, 1961-9 (1995)).

PKBα [Ser473Asp] = target: T1, PKBα [Ser473Asp] (Homo sapiens, UniProt P31749, S473D); assay: Protein kinase activity assay, PKBα; format: biochemical; conditions: Table I a; percentage of catalytic activity compared to DMSO; Crosstide substrate
T1 construct: made in house; host or cells: HEK293
Experimental: For the expression and purification of protein kinases fused to GST, pEBG-2T derived plasmids were transfected into 8×14.5 cm dishes containing HEK293 cells using the PEI method ([…] and […]/14.5 cm dish). The cells were lysed after 48 h in a buffer containing 50 mM Tris-HCl pH 7.5, 1 mM EGTA, 1 mM EDTA, 1% (w/v) Triton X-100, 1 mM sodium orthovanadate, […], 5 mM sodium pyrophosphate, 0.27 M sucrose, 0.1% β-mercaptoethanol, and 1 tablet of protease inhibitor cocktail per 50 ml of buffer. Lysates were frozen in liquid nitrogen and kept at −80° C. until required. Purification involved incubation of the cleared lysate with glutathione sepharose, followed by 2 washes with 0.5 M NaCl in lysis buffer, 8 washes with a buffer containing 50 mM Tris-HCl, 0.1 mM EGTA and 0.1% β-mercaptoethanol (buffer A), and a last wash with buffer A supplemented with 0.26 M sucrose. […]
The protein kinase activity assays were performed essentially as previously described (Engel, M. et al. Embo J 25, 5469-80 (2006)). The assays were done in a 96-well format and 4 μl aliquots spotted on P81 phospho-cellulose papers (Whatman) using epMotion 5070 (Eppendorf), washed in 0.01% phosphoric acid, dried, and then exposed and analyzed using PhosphoImager technology (FLA-9000 Starion, Fujifilm). […]

PKCδ = target: T2, PKCδ (Homo sapiens, UniProt Q05655); assay: Protein kinase activity assay, PKCδ; format: biochemical; conditions: Table I b; percentage of catalytic activity compared to DMSO; lipid activator mix, histone H1
T2 construct: purchased ProQinase
Experimental: as §1
(§2) The substrates were T308tide (200 μM) for PDK1, Kemptide (100 μM) for PKA, and Crosstide (100 μM) for SGK, PKB, S6K, and PRK2. The activity assays for PKCα, β, θ, and δ were performed in the presence of PKC lipid activator mix (1×) using 3 μM of histone H1 as substrate. […]

PKA = assay: Protein kinase activity assay, PKA; format: biochemical; conditions: Table I a; percentage of catalytic activity compared to DMSO; Kemptide substrate
Experimental: as §1, §2

PKCθ = target: T3, PKCθ (Homo sapiens, UniProt Q04759); assay: Protein kinase activity assay, PKCθ; format: biochemical; conditions: Table I b; percentage of catalytic activity compared to DMSO; lipid activator mix, histone H1
T3 construct: purchased ProQinase
Experimental: as §1, §2

PKCβ = target: T4, PKCβ (Homo sapiens, UniProt P05771); assay: Protein kinase activity assay, PKCβ; format: biochemical; conditions: Table I b; percentage of catalytic activity compared to DMSO; lipid activator mix, histone H1
T4 construct: purchased ProQinase
Experimental: as §1, §2

T2 sequence (Q05655 whole entry): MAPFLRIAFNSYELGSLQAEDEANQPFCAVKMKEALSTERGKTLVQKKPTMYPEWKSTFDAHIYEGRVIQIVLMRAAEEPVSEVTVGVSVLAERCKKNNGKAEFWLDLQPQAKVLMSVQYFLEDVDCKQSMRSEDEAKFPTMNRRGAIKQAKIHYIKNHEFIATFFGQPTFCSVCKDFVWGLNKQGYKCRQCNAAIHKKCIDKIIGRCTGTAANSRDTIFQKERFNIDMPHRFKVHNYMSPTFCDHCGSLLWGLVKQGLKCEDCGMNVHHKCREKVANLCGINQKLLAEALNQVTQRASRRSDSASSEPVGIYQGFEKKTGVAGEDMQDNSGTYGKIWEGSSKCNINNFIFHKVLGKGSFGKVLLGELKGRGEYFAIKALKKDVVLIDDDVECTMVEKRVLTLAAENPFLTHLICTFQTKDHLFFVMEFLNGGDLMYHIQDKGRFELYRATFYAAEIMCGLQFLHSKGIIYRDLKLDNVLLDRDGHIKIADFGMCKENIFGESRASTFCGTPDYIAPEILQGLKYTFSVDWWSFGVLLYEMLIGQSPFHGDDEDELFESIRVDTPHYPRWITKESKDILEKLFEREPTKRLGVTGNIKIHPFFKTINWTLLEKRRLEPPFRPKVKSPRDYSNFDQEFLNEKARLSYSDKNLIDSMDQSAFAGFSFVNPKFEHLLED
T4 sequence (P05771 whole entry, species assumed): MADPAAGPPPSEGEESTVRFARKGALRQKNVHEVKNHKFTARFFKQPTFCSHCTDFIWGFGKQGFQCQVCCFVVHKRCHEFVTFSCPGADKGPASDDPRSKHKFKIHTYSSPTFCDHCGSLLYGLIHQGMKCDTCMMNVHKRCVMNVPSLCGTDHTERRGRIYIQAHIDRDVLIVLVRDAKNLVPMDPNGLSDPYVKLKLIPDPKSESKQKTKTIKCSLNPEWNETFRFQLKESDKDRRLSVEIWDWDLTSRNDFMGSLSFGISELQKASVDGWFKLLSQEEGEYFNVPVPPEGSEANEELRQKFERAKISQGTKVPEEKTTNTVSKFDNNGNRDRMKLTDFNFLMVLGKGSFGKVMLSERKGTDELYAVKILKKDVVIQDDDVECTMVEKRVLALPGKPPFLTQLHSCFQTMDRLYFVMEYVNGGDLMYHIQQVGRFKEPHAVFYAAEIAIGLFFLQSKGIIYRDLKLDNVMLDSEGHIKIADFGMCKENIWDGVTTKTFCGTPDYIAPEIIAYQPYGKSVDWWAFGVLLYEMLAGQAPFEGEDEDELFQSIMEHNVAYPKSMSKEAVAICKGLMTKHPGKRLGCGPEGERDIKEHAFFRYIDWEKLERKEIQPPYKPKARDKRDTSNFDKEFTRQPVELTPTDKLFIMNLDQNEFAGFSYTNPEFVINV
T1 sequence (P31749 whole entry S473D): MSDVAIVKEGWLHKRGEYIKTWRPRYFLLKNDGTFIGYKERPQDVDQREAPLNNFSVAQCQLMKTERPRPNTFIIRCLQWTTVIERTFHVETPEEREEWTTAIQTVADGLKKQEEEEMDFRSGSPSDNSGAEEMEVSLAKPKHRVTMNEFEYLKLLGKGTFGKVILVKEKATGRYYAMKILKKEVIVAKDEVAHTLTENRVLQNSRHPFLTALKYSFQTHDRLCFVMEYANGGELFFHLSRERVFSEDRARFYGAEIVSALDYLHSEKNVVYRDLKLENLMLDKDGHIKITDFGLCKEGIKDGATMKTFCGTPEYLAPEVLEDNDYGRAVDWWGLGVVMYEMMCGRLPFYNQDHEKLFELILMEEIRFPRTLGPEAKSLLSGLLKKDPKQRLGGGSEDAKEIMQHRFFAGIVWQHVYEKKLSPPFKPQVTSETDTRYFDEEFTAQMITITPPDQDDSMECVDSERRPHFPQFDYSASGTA
T3 sequence (Q04759 whole entry): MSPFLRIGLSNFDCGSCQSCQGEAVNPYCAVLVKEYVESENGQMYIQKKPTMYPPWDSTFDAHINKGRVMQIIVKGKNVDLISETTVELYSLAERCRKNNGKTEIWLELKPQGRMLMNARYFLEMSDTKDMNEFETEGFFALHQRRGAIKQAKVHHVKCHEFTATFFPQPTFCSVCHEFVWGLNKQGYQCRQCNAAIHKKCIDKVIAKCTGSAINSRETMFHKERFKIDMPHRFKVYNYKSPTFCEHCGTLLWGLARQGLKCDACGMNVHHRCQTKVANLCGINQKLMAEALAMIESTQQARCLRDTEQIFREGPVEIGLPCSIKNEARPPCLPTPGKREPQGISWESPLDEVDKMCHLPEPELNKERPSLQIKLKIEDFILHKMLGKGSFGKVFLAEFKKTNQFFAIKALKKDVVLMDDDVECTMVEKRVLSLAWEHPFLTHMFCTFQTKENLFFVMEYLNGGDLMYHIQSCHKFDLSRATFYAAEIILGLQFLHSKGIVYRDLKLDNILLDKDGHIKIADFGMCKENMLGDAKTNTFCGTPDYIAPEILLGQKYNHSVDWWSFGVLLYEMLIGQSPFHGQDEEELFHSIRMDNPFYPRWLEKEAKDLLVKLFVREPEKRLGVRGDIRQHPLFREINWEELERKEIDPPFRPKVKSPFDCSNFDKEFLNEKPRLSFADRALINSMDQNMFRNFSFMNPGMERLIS

Effect on PDK1 activity (PDK1)	Activity (%) PDK1 (PDK1) [%]	IC50 [1] [µM]	Activity (%) PKBα (PKBα [Ser473Asp]) [%]	Activity (%) Novel PKCs PKCδ (PKCδ) [%]	Activity (%) PKA (PKA) [%]	Activity (%) Novel PKCs PKCθ (PKCθ) [%]	Activity (%) Classical PKCs PKCβ (PKCβ) [%]	Compound
activates	294	50	87	148	70	130	148	Cl.O=C(O)CC(Cc1nc2cc(-c3ccccc3)ccc2[nH]1)c1ccc(Cl)cc1 (stereo not shown) [PS168]
allosteric activators	246	50	94	170	91	118	138	Cl.O=C(O)CC(Cc1nc2c(Cl)cc(Cl)cc2[nH]1)c1ccc(Cl)cc1 (stereo not shown) [PS171]
